One may read the IC50 as the concentration that inhibits the measured activity by half.

The target in one assay is T1, Polyunsaturated fatty acid 5-lipoxygenase (Homo sapiens, UniProt P09917).
T1 sequence (P09917 whole entry): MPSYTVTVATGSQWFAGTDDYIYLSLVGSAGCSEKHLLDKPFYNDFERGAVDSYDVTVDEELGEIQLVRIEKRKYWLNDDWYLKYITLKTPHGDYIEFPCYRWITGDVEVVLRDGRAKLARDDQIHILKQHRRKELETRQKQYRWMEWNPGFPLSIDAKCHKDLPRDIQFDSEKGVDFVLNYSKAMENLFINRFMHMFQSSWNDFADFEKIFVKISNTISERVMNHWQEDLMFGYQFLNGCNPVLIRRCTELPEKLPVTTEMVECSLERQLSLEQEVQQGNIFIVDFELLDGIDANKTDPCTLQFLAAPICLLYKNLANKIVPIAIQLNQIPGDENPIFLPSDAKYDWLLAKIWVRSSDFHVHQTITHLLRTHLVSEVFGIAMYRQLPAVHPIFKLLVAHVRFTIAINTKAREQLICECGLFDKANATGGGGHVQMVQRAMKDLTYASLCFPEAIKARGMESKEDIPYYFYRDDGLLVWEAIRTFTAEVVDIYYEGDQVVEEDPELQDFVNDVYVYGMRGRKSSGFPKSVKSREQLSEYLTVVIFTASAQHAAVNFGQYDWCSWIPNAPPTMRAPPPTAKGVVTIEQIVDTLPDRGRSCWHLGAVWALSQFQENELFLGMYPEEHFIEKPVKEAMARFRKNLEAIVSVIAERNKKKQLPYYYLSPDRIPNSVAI
Nature of the assay: Inhibition of calcium ionophore (A-23187)-stimulated LTB4 formation in human neutrophil assay.
Regarding `C/C(=N\OC(c1ccc(OCc2ccc3ccccc3n2)cc1)C1CCCCC1)C(=O)O` (stereo not drawn) [S-E-2-{Cyclohexyl-[4-(quinolin-2-ylmethoxy)-phenyl]-methoxyimino}-propionic acid], the IC50 came out at 0.015 µM.

Target in another assay: not listed separately
Nature of the assay: Inhibition of calcium ionophore (A-23187)-stimulated LTB4 formation in human neutrophil assay.
Regarding `Cc1nc(COc2ccc(C(O/N=C/C(=O)O)C3CCCCC3)cc2)cs1` (stereo not drawn) [{Cyclohexyl-[4-(2-methyl-thiazol-4-ylmethoxy)-phenyl]-methoxyimino}-acetic acid], the IC50 stood at 0.38 µM.

On to `COc1cc(OCc2ccc3ccccc3n2)ccc1C(O/N=C/C(=O)O)C1CCCCC1` (stereo not drawn) [{Cyclohexyl-[2-methoxy-4-(quinolin-2-ylmethoxy)-phenyl]-methoxyimino}-acetic acid], for which the IC50 was 0.02 µM.

In the case of `O=C(O)/C=N/OC(c1ccc(OCc2nc3ccccc3s2)cc1Br)C1CCCCC1` (stereo not drawn) [{[4-(Benzothiazol-2-ylmethoxy)-2-bromo-phenyl]-cyclohexyl-methoxyimino}-acetic acid], the IC50 came to 0.022 µM.

Consider `O=C(O)/C=N/OC(c1ccc(OCc2nc3ccccc3o2)cc1)C1CCCCC1` (stereo not drawn) [{[4-(Benzooxazol-2-ylmethoxy)-phenyl]-cyclohexyl-methoxyimino}-acetic acid (0.5H2O)], for which the IC50 turned out to be 0.143 µM.

Consider `O=C(O)/C=N/OC(c1ccc(OCc2nc3ccccc3s2)cc1Cl)C1CCCCC1` (stereo not drawn) [{[4-(Benzothiazol-2-ylmethoxy)-2-chloro-phenyl]-cyclohexyl-methoxyimino}-acetic acid], for which the IC50 stood at 0.028 µM.

For `O=C(O)/C=N/OC(c1ccc(OCc2ccccn2)cc1)C1CCCCC1` (stereo not drawn) [{Cyclohexyl-[4-(pyridin-2-ylmethoxy)-phenyl]-methoxyimino}-acetic acid], the IC50 was 0.15 µM.

On to `C/C(=N\OC(c1ccc(OCc2ccc3cc(F)ccc3n2)cc1)C1CCCCC1)C(=O)O` (stereo not drawn) [2-{Cyclohexyl-[4-(6-fluoro-quinolin-2-ylmethoxy)-phenyl]-methoxyimino}-propionic acid], for which the IC50 is 0.02 µM.

In the case of `C/C(=N\OC(c1ccc(OCc2ccc3ccccc3n2)cc1)C1CCCCCC1)C(=O)O` (stereo not drawn) [2-{Cycloheptyl-[4-(quinolin-2-ylmethoxy)-phenyl]-methoxyimino}-propionic acid (0.5H2O)], the IC50 was 0.013 µM.

Regarding `C/C(CCC(=O)O)=N\OC(c1ccc(OCc2ccc3ccccc3n2)cc1)C1CCCCC1` (stereo not drawn) [(Z)-4-{Cyclohexyl-[4-(quinolin-2-ylmethoxy)-phenyl]-methoxyimino}-pentanoic acid], the IC50 is 0.017 µM.

For the compound `O=C(O)/C=N/OC(c1ccc(Oc2ccc3ccccc3n2)cc1)C1CCCCC1` (stereo not drawn) [{Cyclohexyl-[4-(quinolin-2-yloxy)-phenyl]-methoxyimino}-acetic acid (0.25H2O)], the IC50 is 0.16 µM.

For `C/C(=N\O[C@@H](c1ccc(OCc2ccc3ccccc3n2)cc1)C1CCCCC1)C(=O)O`, the IC50 amounted to 0.07 µM.

As for `C/C(CCCC(=O)O)=N\OC(c1ccc(OCc2ccc3ccccc3n2)cc1)C1CCCCC1` (stereo not drawn) [5-{Cyclohexyl-[4-(quinolin-2-ylmethoxy)-phenyl]-methoxyimino}-hexanoic acid], the IC50 was determined as 0.059 µM.

Turning to `O=C(O)/C(=N\OC(c1ccc(OCc2ccc3ccccc3n2)cc1)C1CCCCC1)c1cccs1` (stereo not drawn), the IC50 amounted to 0.023 µM.

For `C/C(CCCCCC(=O)O)=N\OC(c1ccc(OCc2ccc3ccccc3n2)cc1)C1CCCCC1` (stereo not drawn) [7-{Cyclohexyl-[4-(quinolin-2-ylmethoxy)-phenyl]-methoxyimino}-octanoic acid (0.25H2O)], the IC50 amounted to 0.017 µM.

Turning to `C/C(=N\OC(c1ccc(OCc2ccc3ccccc3n2)cc1)C1CCCC1)C(=O)O` (stereo not drawn) [2-{Cyclopentyl-[4-(quinolin-2-ylmethoxy)-phenyl]-methoxyimino}-propionic acid], the IC50 is 0.016 µM.

With `C/C(CCC(=O)O)=N/OC(c1ccc(OCc2ccc3ccccc3n2)cc1)C1CCCCC1` (stereo not drawn), the IC50 was 0.02 µM.

For `O=C(O)/C(=N/OC(c1ccc(OCc2ccc3ccccc3n2)cc1)C1CCCCC1)c1cccs1` (stereo not drawn) [(E)-{Cyclohexyl-[4-(quinolin-2-ylmethoxy)-phenyl]-methoxyimino}-thiophen-2-yl-acetic acid (2.5H2O)], the IC50 came to 0.021 µM.
